Results reported in patent US20100210611A1, “COMBINATION THERAPY” (priority 2007, published 2010).
Values joined by “and” are separate entries in the source; they are usually repeats but may differ in a detail not shown here. Identical values can stand only once. One block for each compound: values may come before it.

Experiments:
Format in all cases: physicochemical
[1] = Aerodynamic particle size distribution, Andersen cascade impaction (ACI); conditions: Spinhaler; for MMAD: cutoff diameter based on airflow rate of 28.3 L/min; for amount in ACI: including mouthpiece adapter
From the text: The Andersen cascade impaction (ACI) (Apparatus 3) was the device used to determine the aerodynamic size distribution. The impaction provided in vitro measurements of the fraction of the aerosol that has the potential to reach the alveolar region of the lung. This value is represented by the portion of particles detected below plate 2. The impaction was operated at the flow rate and test time according to the method described in USP <601>. Because the Spinhaler® is a low resistance device, it is difficult to achieve a pressure drop of 4 kPa, an adjustment of the air flow rate at the intake of the flow control was performed, as discussed above. Each impaction plate was coated with silicone grease (316 Dow Corning) to prevent particles from bouncing off the plates and returning to the air stream. All stages were used since the test flow rate was less than 60 L/min. All pieces of the impaction including the inhaler and capsule were rinsed with solvent, diluted to suitable volumes, sonicated, centrifuged and assayed using the UV-VIS spectrophotometer. The respirable portion was quantified by the in vitro fine particle fraction and fine particle mass. Dose uniformity and cascade impaction tests were carried out at controlled temperature (20-25° C.) and humidity (50% RH). […]
Aerodynamic size distribution was performed according to USP Chapter <601> by using ACI Apparatus 3 with the Spinhaler® device analogous to that described in section Aerodynamic Particle Size Distribution for Example 1. However, the HPLC was used to analyze the content of the drugs as described in the Blend Uniformity in this example.
Aerodynamic size distribution was performed according to USP Chapter <601> by using ACI Apparatus 3 with the Spinhaler® device in a manner analogous to that described in section Aerodynamic Particle Size Distribution in Example 4. The content of the drugs were analyzed as described in the Blend Uniformity in this example.

[2] = Blend uniformity (individual capsule assay); conditions: HPLC, Mean ± RSD
Procedure: To assess blend uniformity, capsules from each blend were opened and rinsed with methanol. The solution was sonicated for 5 minutes at room temperature, centrifuged at 3000 rpm for 15 minutes then assayed using a UV-VIS spectrophotometer at a wavelength of 346 nm. […]
To assess blend uniformity, the blend was sampled randomly from the glass vial. The drugs were extracted analogous to that described in section Blend Uniformity for Example 1. However, the content of montelukast acid and mometasone furoate were analyzed by High Performance Liquid Chromatography (HPLC) employing a phenyl column with a controlled temperature of 50° C., a mixture of water containing 0.2% trifluoroacetic acid (TFA) and acetonitrile containing 0.2% TFA (53:47) as the mobile phase at a flow rate 2 ml/min and UV-detection at 248 nm.
The blend uniformity was assessed in a manner analogous to that described in the Blend Uniformity section in Example 4, except the content of montelukast acid and ciclesonide were analyzed by High Performance Liquid Chromatography (HPLC) employing a phenyl column with a controlled temperature of 50° C., a mixture of water containing 0.2% trifluoroacetic acid (TFA) and acetonitrile containing 0.2% TFA (40:60) at a flow rate 2 ml/min and UV-detection at 248 nm.

[3] = Dose uniformity, Dosage Unit Sampling Apparatus (DUSA), USP <601>; conditions: Spinhaler; for Total recovered / amount in Device + Capsule: listed as MOM; for amount in Device + Capsule: nominal 1000 μg MON, 400 μg MOM
Procedure: Dose uniformity was determined using Apparatus B (Dosage Unit Sampling Apparatus—DUSA) at a flow rate of 100 L/min (test described in United States Pharmacopoeia (USP) 27 Chapter <601>). The USP recommends selecting a flow rate that creates a pressure drop of 4 kPa across the inhaler. With the Spinhaler, a 4 kPa pressure drop could not be achieved even at the maximum flow rate of 100 L/min. Based on the recommendations of Byron, et al., a flow rate of 100 L/min was selected since the Spinhaler is a low resistance device. See Michael Hindle and Peter R. Byron, “Dose emissions from marketed dry powder inhalers”, International Journal of Pharmaceutics 116 (1995) 169-177. The test was run for 2.4 seconds in order to pull 4 L of air. After a shot had been delivered, all pieces of the DUSA including the mouthpiece adapter were rinsed with solvent. To determine the amount of drug retained in the inhaler, all pieces of the inhaler were rinsed with solvent including the interior of the capsule. The samples were then assayed using the UV-Vis spectrophotometer.
Shot weight was obtained by measuring the weight loss due to the actuation of the device. The device was tared, a “shot” was wasted in the DUSA and the device was re-weighed to obtain the delivered shot weight. Dose and shot weight were deemed acceptable if they were within 75% to 125% of the theoretical values (USP <601>).
(§1) Dose Uniformity (DU) was performed according to USP Chapter <601> by using DUSA Apparatus B with the Spinhaler® device which is analogous to that described in section Dose Uniformity for Example 1. However, the HPLC was used to analyze the content of the drugs as described in the Blend Uniformity in this example.
as §1, with “Uniformity” for “Uniformity (DU)”, “device and in a manner” for “device which is”, “Uniformity in” for “Uniformity for”, “Example 4, except” for “Example 1. However,”

[4] = Particle size of unmilled and jet milled API
[5] = Moisture and light sensitivity
[6] = Example 4 blend, listed as mometasone furoate
[7] = Example 4 blend, flow 61.5 L/min for 3.9 sec
[8] = Example 4 blend, flow 62.3 L/min for 3.9 sec
[9] = Example 4 blend, flow 62.8 L/min for 3.8 sec
[10] = Milled API, Microtrac data, after sonication for 60 seconds
[11] = Unmilled API, optical microscopy
[12] = Example 5 blend, listed as ciclesonide

FPD ([1]; Example 4 blend): 43.5 µg and 53.9 µg and 41.8 µg
FPF ([1]; Example 4 blend): 21.0% and 22.7% and 22.1%
GSD ([1]; Example 4 blend): 1.5
Total recovered ([1]; Example 4 blend): 404 µg and 402 µg and 395 µg
amount in inhaler ([1]; Example 4 blend): 198 µg and 165 µg and 206 µg
MMAD ([1]; Example 4 blend): 3.9 μm and 4.1 μm
MMAD [1, 6]: 4.0 μm
MMAD ([1]; Example 4 blend, mean): 4.0 μm
amount in ACI ([1]; Example 4 blend): 207 µg and 237 µg and 189 µg
amount in ACI ([1]; Example 4 blend, mean): 211 µg
FPF [1, 6]: 22%
FPD ([1]; Example 4 blend, mean): 46.4 µg
FPF ([1]; Example 4 blend, mean): 21.9%
GSD ([1]; Example 4 blend, mean): 1.4
Total recovered ([1]; Example 4 blend, mean): 400 µg
amount in inhaler ([1]; Example 4 blend, mean): 189 µg
Amount Recovered (μg/Capsule) ([2]; Example 4 blend (montelukast acid 4%, mometasone furoate 1.6%)): 386.8 µg and 371.6 µg and 389.5 µg
Amount Recovered (μg/Capsule) ([2]; Example 4 blend (montelukast acid 4%, mometasone furoate 1.6%), mean): 382.6 ± 2.6 µg
Amount Recovered, % ([2]; Example 4 blend): 93.9% and 93.5% and 95.8%
Amount Recovered, % ([2]; Example 4 blend, mean): 94.4 ± 1.4%
DU based on nominal dose, % (Device + Capsule) ([3]; Example 4 blend): 44.5%
DU based on nominal dose, % (printed in Adapter + Filter column) ([3]; Example 4 blend): 55.5%
DU based on total recovered, % (Device + Capsule) ([3]; Example 4 blend): 44.5%
DU based on total recovered, % (printed in Adapter + Filter column) ([3]; Example 4 blend): 55.5%
Total recovered [3, 7]: 397.04 µg and 394.77 µg and 399.78 µg
Total recovered [3, 8]: 408.74 µg and 407.23 µg
Total recovered [3, 9]: 394.15 µg and 396.73 µg
amount in Device + Capsule [3, 7]: 179.94 µg and 178.36 µg and 177.83 µg
amount in Device + Capsule [3, 8]: 165.97 µg and 165.37 µg
amount in Device + Capsule [3, 9]: 187.90 µg and 189.44 µg
SMILES: C[C@@H]1C[C@H]2[C@@H]3CCC4=CC(=O)C=C[C@]4(C)[C@@]3(Cl)[C@@H](O)C[C@]2(C)[C@@]1(OC(=O)c1ccco1)C(=O)CCl [Mometasone Furoate, mometasone furoate]

Particle size, 95% ([4]; Milled API, Aerosizer data): 7.832 microns
Particle size, Mean ([4]; Milled API, Aerosizer data): 2.832 microns
Particle size, 95% [4, 10]: 4.577 microns
Particle size, Mean [4, 10]: 2.794 microns
Particle size, 95% [4, 11]: 37 microns
Particle size, Mean [4, 11]: 11 microns
moisture and light sensitivity [5]: moisture sensitive and photosensitive
SMILES: O=C(NC1CC1)c1cn(-c2cccc(C#Cc3ccc[n+]([O-])c3)c2)c2ncccc2c1=O [Compound X, N-cyclopropyl-1-[3-(1-oxido-3-pyridinylethynyl)phenyl]-1,4-dihydro[1,8]-naphthyridin-4-one-3-carboxamide]

FPD ([1]; Example 5 blend): 33.6 µg and 31.1 µg and 41.4 µg
FPF ([1]; Example 5 blend): 30.6% and 29.1% and 33.9%
GSD ([1]; Example 5 blend): 1.7 and 1.5
Total recovered ([1]; Example 5 blend): 177 µg and 160 µg and 178 µg
amount in inhaler ([1]; Example 5 blend): 67 µg and 53 µg and 56 µg
MMAD ([1]; Example 5 blend): 3.6 μm and 3.8 μm
MMAD [1, 12]: 3.7 μm
MMAD ([1]; Example 5 blend, mean): 3.7 μm
amount in ACI ([1]; Example 5 blend): 110 µg and 107 µg and 122 µg
amount in ACI ([1]; Example 5 blend, mean): 113 µg
FPF [1, 12]: 31%
FPD ([1]; Example 5 blend, mean): 35.5 µg
FPF ([1]; Example 5 blend, mean): 31.2%
GSD ([1]; Example 5 blend, mean): 1.6
Total recovered ([1]; Example 5 blend, mean): 172 µg
amount in inhaler ([1]; Example 5 blend, mean): 59 µg
Amount Recovered (μg/Capsule) ([2]; Example 5 blend (montelukast acid 4%, ciclesonide 0.64%)): 150.9 µg and 146.7 µg and 157.6 µg
Amount Recovered (μg/Capsule) ([2]; Example 5 blend (montelukast acid 4%, ciclesonide 0.64%), mean of three capsules): 151.1 ± 3.3 µg
Amount Recovered, % ([2]; Example 5 blend): 93.3% and 93.7% and 92.5%
Amount Recovered, % ([2]; Example 5 blend, mean of three capsules): 93.2 ± 0.6%
DU based on nominal dose, % (Device + Capsule) ([3]; Example 5 blend): 35.2%
DU based on nominal dose, % (printed in Adapter + Filter column) ([3]; Example 5 blend): 61.7%
DU based on total recovered, % (Device + Capsule) ([3]; Example 5 blend): 36.3%
DU based on total recovered, % (printed in Adapter + Filter column) ([3]; Example 5 blend): 63.7%
SMILES: CC(C)C(=O)OCC(=O)[C@@]12O[C@H](C3CCCCC3)O[C@@H]1C[C@H]1[C@@H]3CCC4=CC(=O)C=C[C@]4(C)[C@H]3[C@@H](O)C[C@@]12C [Ciclesonide, ciclesonide]
